Columns and labels:
Experiment in all cases: KINOMEscan competition binding
Conditions in all cases: compound 10.0 µM
[1] = test system: ABL1 (human), P00519 [E255K]
AURKA (human) = AURKA (human) (UniProt O14965)
AURKB (human) = AURKB (human) (UniProt Q96GD4)
CAMKK1 (human) = CAMKK1 (human) (UniProt Q8N5S9)
CDK19 (human) = CDK19 (human) (UniProt Q9BWU1)
CDK9 (human) = CDK9 (human) (UniProt P50750)
CDKL2 (human) = CDKL2 (human) (UniProt Q92772)
CDKL3 (human) = CDKL3 (human) (UniProt Q8IVW4)
EPHA1 (human) = EPHA1 (human) (UniProt P21709)
FGFR2 (human) = FGFR2 (human) (UniProt P21802)
[2] = test system: FGFR3 (human), P22607 [G697C]
FGR (human) = FGR (human) (UniProt P09769)
FLT1 (human) = FLT1 (human) (UniProt P17948)
[3] = test system: FLT3 (human), P36888 [N841I]
IKBKB (human) = IKBKB (human) (UniProt O14920)
INSRR (human) = INSRR (human) (UniProt P14616)
IRAK3 (human) = IRAK3 (human) (UniProt Q9Y616)
[4] = test system: KIT (human), P10721 [V559D/T670I]
[5] = test system: KIT (human), P10721 [V559D/V654A]
LIMK1 (human) = LIMK1 (human) (UniProt P53667)
LTK (human) = LTK (human) (UniProt P29376)
MAK (human) = MAK (human) (UniProt P20794)
MAP4K1 (human) = MAP4K1 (human) (UniProt Q92918)
MAPK4 (human) = MAPK4 (human) (UniProt P31152)
MARK2 (human) = MARK2 (human) (UniProt Q7KZI7)
NEK1 (human) = NEK1 (human) (UniProt Q96PY6)
NTRK2 (human) = NTRK2 (human) (UniProt Q16620)
[6] = test system: PIK3CA (human), P42336 [C420R]
[7] = test system: PIK3CA (human), P42336 [H1047Y]
PRKD1 (human) = PRKD1 (human) (UniProt Q15139)
RIOK3 (human) = RIOK3 (human) (UniProt O14730)
RPS6KA1 KD1 (human) = RPS6KA1 KD1 (human) (UniProt Q15418)
RPS6KA1 KD2 (human) = RPS6KA1 KD2 (human) (UniProt Q15418)
RPS6KA5 KD2 (human) = RPS6KA5 KD2 (human) (UniProt O75582)
SIK2 (human) = SIK2 (human) (UniProt Q9H0K1)
STK11 (human) = STK11 (human) (UniProt Q15831)
TEC (human) = TEC (human) (UniProt P42680)
TESK1 (human) = TESK1 (human) (UniProt Q15569)
TGFBR2 (human) = TGFBR2 (human) (UniProt P37173)
ULK3 (human) = ULK3 (human) (UniProt Q6PHR2)

TEC (human), sequence (P42680 whole entry, looked up): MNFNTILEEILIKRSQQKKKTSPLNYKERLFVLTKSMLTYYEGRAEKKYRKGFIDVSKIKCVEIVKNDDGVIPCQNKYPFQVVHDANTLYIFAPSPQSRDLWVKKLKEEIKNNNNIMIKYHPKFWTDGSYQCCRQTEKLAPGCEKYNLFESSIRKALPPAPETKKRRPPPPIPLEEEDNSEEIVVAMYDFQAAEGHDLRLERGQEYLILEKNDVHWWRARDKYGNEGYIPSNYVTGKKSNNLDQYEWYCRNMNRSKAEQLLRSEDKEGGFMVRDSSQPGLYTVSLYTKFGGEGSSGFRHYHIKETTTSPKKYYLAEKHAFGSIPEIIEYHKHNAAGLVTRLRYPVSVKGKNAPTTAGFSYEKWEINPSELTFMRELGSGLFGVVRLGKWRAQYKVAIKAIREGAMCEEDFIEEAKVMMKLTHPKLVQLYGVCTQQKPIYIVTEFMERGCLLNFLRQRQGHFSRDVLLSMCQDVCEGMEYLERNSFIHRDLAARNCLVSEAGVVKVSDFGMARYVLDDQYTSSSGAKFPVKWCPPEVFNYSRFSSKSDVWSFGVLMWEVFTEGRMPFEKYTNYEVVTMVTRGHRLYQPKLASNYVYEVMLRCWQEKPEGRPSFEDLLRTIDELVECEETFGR
IRAK3 (human), sequence (Q9Y616 whole entry, looked up): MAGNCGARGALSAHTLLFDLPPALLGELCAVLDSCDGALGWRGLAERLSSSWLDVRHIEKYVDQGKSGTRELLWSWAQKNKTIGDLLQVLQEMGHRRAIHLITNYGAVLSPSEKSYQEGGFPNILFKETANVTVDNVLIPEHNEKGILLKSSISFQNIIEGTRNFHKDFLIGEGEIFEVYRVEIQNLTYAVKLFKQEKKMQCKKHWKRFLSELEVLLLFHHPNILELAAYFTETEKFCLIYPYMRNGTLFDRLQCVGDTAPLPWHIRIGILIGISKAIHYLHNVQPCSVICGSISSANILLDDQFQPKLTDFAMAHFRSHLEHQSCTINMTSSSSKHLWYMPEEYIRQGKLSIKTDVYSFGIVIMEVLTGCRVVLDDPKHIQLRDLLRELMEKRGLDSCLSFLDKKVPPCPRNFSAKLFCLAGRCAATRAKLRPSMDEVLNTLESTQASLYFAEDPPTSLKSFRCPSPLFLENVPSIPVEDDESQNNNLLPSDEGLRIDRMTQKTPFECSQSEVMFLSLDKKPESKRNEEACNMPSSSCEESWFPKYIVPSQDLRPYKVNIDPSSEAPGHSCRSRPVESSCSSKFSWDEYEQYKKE
PIK3CA (human), P42336 [H1047Y], sequence (P42336 whole entry H1047Y, looked up): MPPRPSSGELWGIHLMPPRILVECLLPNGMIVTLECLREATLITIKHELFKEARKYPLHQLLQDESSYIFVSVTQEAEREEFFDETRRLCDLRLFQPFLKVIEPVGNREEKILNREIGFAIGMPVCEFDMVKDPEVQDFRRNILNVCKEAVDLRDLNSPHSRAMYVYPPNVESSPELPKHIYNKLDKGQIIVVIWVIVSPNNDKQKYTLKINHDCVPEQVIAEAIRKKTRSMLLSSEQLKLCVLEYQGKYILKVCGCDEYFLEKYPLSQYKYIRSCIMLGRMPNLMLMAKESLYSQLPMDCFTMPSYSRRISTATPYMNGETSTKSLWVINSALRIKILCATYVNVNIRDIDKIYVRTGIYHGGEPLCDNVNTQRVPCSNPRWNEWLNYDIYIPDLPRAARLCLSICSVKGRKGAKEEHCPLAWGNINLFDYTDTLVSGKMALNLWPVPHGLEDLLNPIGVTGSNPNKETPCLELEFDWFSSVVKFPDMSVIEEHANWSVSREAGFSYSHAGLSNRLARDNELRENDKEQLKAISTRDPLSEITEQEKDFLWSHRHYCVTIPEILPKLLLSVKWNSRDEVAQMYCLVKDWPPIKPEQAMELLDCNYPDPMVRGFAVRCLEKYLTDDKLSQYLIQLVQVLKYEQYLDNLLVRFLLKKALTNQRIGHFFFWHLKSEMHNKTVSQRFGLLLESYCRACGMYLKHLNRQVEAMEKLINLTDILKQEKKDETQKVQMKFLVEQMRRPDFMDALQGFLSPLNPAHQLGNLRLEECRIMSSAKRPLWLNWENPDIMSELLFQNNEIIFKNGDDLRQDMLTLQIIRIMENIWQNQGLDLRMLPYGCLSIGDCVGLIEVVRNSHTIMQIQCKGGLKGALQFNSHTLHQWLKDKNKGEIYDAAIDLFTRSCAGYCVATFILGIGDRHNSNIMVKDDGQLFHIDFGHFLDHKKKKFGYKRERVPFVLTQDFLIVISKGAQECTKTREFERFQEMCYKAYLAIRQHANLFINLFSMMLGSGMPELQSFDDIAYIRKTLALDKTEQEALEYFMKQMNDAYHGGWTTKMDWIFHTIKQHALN
INSRR (human), sequence (P14616 whole entry, looked up): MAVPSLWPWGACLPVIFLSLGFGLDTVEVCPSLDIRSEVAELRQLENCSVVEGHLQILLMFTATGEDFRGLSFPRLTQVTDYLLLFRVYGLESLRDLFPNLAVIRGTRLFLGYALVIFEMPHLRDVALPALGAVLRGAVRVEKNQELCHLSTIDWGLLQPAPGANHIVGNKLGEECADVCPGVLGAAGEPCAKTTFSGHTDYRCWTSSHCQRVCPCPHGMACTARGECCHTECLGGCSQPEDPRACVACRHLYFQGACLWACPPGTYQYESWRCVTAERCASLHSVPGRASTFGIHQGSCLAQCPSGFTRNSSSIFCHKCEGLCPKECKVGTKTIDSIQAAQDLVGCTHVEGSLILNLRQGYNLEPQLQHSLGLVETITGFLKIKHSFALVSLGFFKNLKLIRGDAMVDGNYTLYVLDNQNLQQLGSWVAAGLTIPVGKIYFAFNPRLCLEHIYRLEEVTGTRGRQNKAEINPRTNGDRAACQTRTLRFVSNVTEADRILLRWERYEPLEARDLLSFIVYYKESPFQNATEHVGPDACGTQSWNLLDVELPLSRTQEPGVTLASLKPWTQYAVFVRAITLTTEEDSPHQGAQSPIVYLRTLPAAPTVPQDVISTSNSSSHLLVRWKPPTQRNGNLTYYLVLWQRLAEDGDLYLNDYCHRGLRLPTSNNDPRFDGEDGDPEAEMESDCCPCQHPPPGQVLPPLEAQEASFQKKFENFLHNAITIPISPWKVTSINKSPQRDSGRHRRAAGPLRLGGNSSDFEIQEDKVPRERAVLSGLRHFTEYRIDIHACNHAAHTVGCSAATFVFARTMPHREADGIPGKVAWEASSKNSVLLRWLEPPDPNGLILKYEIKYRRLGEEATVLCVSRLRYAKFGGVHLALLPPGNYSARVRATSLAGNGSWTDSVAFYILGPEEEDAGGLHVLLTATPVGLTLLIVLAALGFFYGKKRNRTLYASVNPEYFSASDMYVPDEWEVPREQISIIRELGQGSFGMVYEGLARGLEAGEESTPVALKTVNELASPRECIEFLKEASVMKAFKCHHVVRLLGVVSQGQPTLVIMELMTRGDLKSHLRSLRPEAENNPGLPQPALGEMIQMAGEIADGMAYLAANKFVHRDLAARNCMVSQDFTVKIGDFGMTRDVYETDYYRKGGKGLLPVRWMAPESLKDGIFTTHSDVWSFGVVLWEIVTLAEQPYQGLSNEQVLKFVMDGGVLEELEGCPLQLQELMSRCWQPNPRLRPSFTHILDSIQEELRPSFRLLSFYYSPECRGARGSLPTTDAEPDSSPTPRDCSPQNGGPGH
TESK1 (human), sequence (Q15569 whole entry, looked up): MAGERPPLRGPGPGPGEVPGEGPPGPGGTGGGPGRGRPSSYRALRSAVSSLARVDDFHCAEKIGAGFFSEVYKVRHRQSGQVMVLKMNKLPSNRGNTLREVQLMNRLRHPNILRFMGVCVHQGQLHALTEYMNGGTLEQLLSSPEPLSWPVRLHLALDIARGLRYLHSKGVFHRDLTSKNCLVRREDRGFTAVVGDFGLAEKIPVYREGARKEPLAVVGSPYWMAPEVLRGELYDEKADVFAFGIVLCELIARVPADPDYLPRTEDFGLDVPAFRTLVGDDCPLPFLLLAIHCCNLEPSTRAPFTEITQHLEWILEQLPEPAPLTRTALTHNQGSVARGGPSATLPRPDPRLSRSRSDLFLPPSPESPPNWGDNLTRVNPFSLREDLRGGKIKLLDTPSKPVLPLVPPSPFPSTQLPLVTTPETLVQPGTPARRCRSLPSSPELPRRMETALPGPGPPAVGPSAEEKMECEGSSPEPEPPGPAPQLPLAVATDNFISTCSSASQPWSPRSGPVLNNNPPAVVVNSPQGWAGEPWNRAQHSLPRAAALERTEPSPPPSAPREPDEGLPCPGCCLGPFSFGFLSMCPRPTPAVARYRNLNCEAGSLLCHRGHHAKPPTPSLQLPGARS
CDKL2 (human), sequence (Q92772 whole entry, looked up): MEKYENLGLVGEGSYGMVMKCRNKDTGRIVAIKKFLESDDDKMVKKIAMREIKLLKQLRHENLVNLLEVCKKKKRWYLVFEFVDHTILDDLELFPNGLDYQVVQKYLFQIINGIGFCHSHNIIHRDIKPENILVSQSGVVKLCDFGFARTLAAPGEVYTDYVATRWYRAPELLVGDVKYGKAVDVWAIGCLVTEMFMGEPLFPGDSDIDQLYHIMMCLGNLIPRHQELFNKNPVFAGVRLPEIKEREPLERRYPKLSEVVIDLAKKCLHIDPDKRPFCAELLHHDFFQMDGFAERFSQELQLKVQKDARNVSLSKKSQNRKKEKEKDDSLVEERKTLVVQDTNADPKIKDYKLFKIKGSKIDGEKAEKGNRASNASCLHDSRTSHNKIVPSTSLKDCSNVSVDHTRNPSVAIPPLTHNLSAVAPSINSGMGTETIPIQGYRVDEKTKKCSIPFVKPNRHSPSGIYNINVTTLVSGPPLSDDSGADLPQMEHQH
AURKB (human), sequence (Q96GD4 whole entry, looked up): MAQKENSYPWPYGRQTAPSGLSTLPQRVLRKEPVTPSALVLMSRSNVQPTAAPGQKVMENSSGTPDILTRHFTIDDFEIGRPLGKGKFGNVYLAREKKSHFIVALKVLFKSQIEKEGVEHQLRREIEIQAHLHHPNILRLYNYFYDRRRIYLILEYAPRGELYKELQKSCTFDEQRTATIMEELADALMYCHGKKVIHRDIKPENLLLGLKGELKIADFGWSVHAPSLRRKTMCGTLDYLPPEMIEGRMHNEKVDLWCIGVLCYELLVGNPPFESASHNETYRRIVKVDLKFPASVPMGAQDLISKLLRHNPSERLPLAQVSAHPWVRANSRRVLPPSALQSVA

With `COc1ccc(CNC(=O)Nc2ncc([N+](=O)[O-])s2)cc1` the kinase still bound, per cent of control [1] was 100%, the kinase still bound, per cent of control (AURKA (human)) was 84% and the kinase still bound, per cent of control (AURKB (human)) was 97%. For the same molecule, the kinase still bound, per cent of control (CAMKK1 (human)) was 93%, the kinase still bound, per cent of control (CDK19 (human)) was 100% and the kinase still bound, per cent of control (CDK9 (human)) was 89%. The kinase still bound, per cent of control (CDKL2 (human)) was 40%, the kinase still bound, per cent of control (CDKL3 (human)) was 76% and the kinase still bound, per cent of control (EPHA1 (human)) was 100%. It also gave a kinase still bound, per cent of control (FGFR2 (human)) of 81%, a kinase still bound, per cent of control [2] of 100% and a kinase still bound, per cent of control (FGR (human)) of 100%. The kinase still bound, per cent of control (FLT1 (human)) was 57%, the kinase still bound, per cent of control [3] was 89% and the kinase still bound, per cent of control (IKBKB (human)) was 100%. The kinase still bound, per cent of control (INSRR (human)) was 93%, the kinase still bound, per cent of control (IRAK3 (human)) was 100% and the kinase still bound, per cent of control [4] was 86%. For the same molecule, the kinase still bound, per cent of control [5] was 88%, the kinase still bound, per cent of control (LIMK1 (human)) was 100% and the kinase still bound, per cent of control (LTK (human)) was 100%. The kinase still bound, per cent of control (MAK (human)) was 94%, the kinase still bound, per cent of control (MAP4K1 (human)) was 98% and the kinase still bound, per cent of control (MAPK4 (human)) was 100%. It also gave a kinase still bound, per cent of control (MARK2 (human)) of 100%, a kinase still bound, per cent of control (NEK1 (human)) of 100% and a kinase still bound, per cent of control (NTRK2 (human)) of 81%. For the same molecule, the kinase still bound, per cent of control [6] was 95%, the kinase still bound, per cent of control [7] was 100% and the kinase still bound, per cent of control (PRKD1 (human)) was 69%. The kinase still bound, per cent of control (RIOK3 (human)) was 86%, the kinase still bound, per cent of control (RPS6KA1 KD1 (human)) was 100% and the kinase still bound, per cent of control (RPS6KA1 KD2 (human)) was 100%. For the same molecule, the kinase still bound, per cent of control (RPS6KA5 KD2 (human)) was 100%, the kinase still bound, per cent of control (SIK2 (human)) was 80% and the kinase still bound, per cent of control (STK11 (human)) was 83%. The kinase still bound, per cent of control (TEC (human)) was 100%, the kinase still bound, per cent of control (TESK1 (human)) was 100% and the kinase still bound, per cent of control (TGFBR2 (human)) was 70%. It also gave a kinase still bound, per cent of control (ULK3 (human)) of 95%.

Source: the kinase profiling compilation of Christmann-Franck et al. (2016)
